# Assay results reported in ChEMBL document CHEMBL1681651, “A broad spectrum anticancer nucleoside with selective toxicity against human colon cells in vitro” (2011).
# What was measured:
# Assay type in all cases: functional
# HL-60(TB) [1] = test: Growth inhibition of human HL-60(TB) cells after 48 hrs by […] growth inhibition assay; conditions: HL-60, 48 h
# T47D [2] = test: Growth inhibition of human T47D cells assessed as cell growth at 10 uM after 48 hrs by SRB assay; conditions: read-out: Activity
# K562 [3] = test: Growth inhibition of human K562 cells assessed as cell growth at 0.1 uM after 48 hrs by SRB assay; conditions: K562, 48 h, read-out: Activity
# HL-60(TB) [4] = test: Growth inhibition of human HL-60(TB) cells assessed as cell growth at 0.1 uM after 48 hrs by SRB assay; conditions: HL-60, 48 h, read-out: Activity
# MOLT-4 [5] = test: Growth inhibition of human MOLT4 cells assessed as cell growth at 0.1 uM after 48 hrs by SRB assay; conditions: MOLT-4, 48 h, read-out: Activity
# CAKI-1 = test: Growth inhibition of human Caki1 cells after 48 hrs by […] growth inhibition assay; conditions: CAKI-1, 48 h
# MDA-MB-435 = test: Growth inhibition of human MDA-MB-435 cells assessed as cell growth at 10 uM after 48 hrs by SRB assay; conditions: MDA-MB-435, 48 h, read-out: Activity
# SNB-19 = test: Growth inhibition of human SNB19 cells assessed as cell growth at 10 uM after 48 hrs by SRB assay; conditions: SNB-19, 48 h, read-out: Activity
# MOLT-4 [6] = test: Growth inhibition of human MOLT4 cells assessed as cell growth at 1 uM after 48 hrs by SRB assay; conditions: MOLT-4, 48 h, read-out: Activity
# SR [7] = test: Growth inhibition of human SR cells assessed as cell growth at 100 uM after 48 hrs by SRB assay; conditions: read-out: Activity
# SW-620 [8] = test: Growth inhibition of human SW620 cells assessed as cell growth at 1 mM after 48 hrs by SRB assay; conditions: SW-620, 48 h, read-out: Activity
# [9] = Growth inhibition of human Hs 578T cells after 48 hrs by […] growth inhibition assay
# EKVX = test: Growth inhibition of human EKVX cells assessed as cell growth at 1 mM after 48 hrs by SRB assay; conditions: read-out: Activity
# M14 = test: Growth inhibition of human M14 cells after 48 hrs by […] growth inhibition assay; conditions: M14, 48 h
# Malme-3M = test: Growth inhibition of human MALME-3M cells assessed as cell growth at 0.1 uM after 48 hrs by SRB assay; conditions: read-out: Activity
# RXF 393 = test: Growth inhibition of human RXF393 cells assessed as cell growth at 0.1 uM after 48 hrs by SRB assay; conditions: RXF 393, 48 h, read-out: Activity
# [10] = Growth inhibition of human […] cells assessed as cell growth at 1 mM after 48 hrs by SRB assay; conditions: read-out: Activity
# T47D [11] = test: Growth inhibition of human T47D cells assessed as cell growth at 100 uM after 48 hrs by SRB assay; conditions: read-out: Activity
# [12] = Growth inhibition of human Hs 578T cells assessed as cell growth at 1 uM after 48 hrs by SRB assay; conditions: read-out: Activity
# SW-620 [13] = test: Growth inhibition of human SW620 cells assessed as cell growth at 1 uM after 48 hrs by SRB assay; conditions: SW-620, 48 h, read-out: Activity
# DU-145 = test: Growth inhibition of human DU145 cells assessed as cell growth at 10 uM after 48 hrs by SRB assay; conditions: DU-145, 48 h, read-out: Activity
# SR [14] = test: Growth inhibition of human SR cells after 48 hrs by SRB assay
# K562 [15] = test: Growth inhibition of human K562 cells after 48 hrs by […] growth inhibition assay; conditions: K562, 48 h
# SW-620 [16] = test: Growth inhibition of human SW620 cells assessed as cell growth at 0.1 uM after 48 hrs by SRB assay; conditions: SW-620, 48 h, read-out: Activity
# K562 [17] = test: Growth inhibition of human K562 cells assessed as cell growth at 100 uM after 48 hrs by SRB assay; conditions: K562, 48 h, read-out: Activity
# SK-MEL-28 [18] = test: Growth inhibition of human SK-MEL-28 cells assessed as cell growth at 100 uM after 48 hrs by SRB assay; conditions: SK-MEL-28, 48 h, read-out: Activity
# MOLT-4 [19] = test: Growth inhibition of human MOLT4 cells assessed as cell growth at 1 mM after 48 hrs by SRB assay; conditions: MOLT-4, 48 h, read-out: Activity
# SK-MEL-28 [20] = test: Growth inhibition of human SK-MEL-28 cells assessed as cell growth at 1 mM after 48 hrs by SRB assay; conditions: SK-MEL-28, 48 h, read-out: Activity
# SW-620 [21] = test: Growth inhibition of human SW620 cells assessed as cell growth at 100 uM after 48 hrs by SRB assay; conditions: SW-620, 48 h, read-out: Activity
# MOLT-4 [22] = test: Growth inhibition of human MOLT4 cells after 48 hrs by […] growth inhibition assay; conditions: MOLT-4, 48 h
# SK-MEL-28 [23] = test: Growth inhibition of human SK-MEL-28 cells assessed as cell growth at 0.1 uM after 48 hrs by SRB assay; conditions: SK-MEL-28, 48 h, read-out: Activity
# [24] = read-out: LC50 (the source's name)
# [25] = read-out: pLC50 (the source's name) (converted)
structure (smiles),measurement,setting,value
CNC(=O)NC[C@H]1O[C@@H](n2cnc3c(NC(=O)Nc4ccccc4)ncnc32)[C@H](O[Si](C)(C)C(C)(C)C)[C@@H]1CC(=O)N(C)OC,GI50,HL-60(TB) [1]; read-out: GI50,1.81 µM
same,CC50,HL-60(TB) [1]; [24],> 100 µM
same,TGI,HL-60(TB) [1]; read-out: TGI,4.34 µM
same,GI50,HL-60(TB) [1]; read-out: pGI50 (converted),1.82 µM
same,CC50,HL-60(TB) [1]; [25],16.2 µM
same,TGI,HL-60(TB) [1]; read-out: pTGI (converted),4.37 µM
same,growth at 10 µM,T47D [2],84%
same,growth at 0.1 µM,K562 [3],95%
same,growth at 0.1 µM,HL-60(TB) [4],95%
same,growth at 0.1 µM,MOLT-4 [5],96%
same,GI50,CAKI-1; read-out: GI50,53.8 µM
same,CC50,CAKI-1; [24],> 100 µM
same,TGI,CAKI-1; read-out: TGI,> 100 µM
same,GI50,CAKI-1; read-out: pGI50 (converted),53.7 µM
same,CC50,CAKI-1; [25],> 100 µM
same,TGI,CAKI-1; read-out: pTGI (converted),> 100 µM
same,growth at 10 µM,MDA-MB-435,98%
same,growth at 10 µM,SNB-19,83%
same,growth at 1 µM,MOLT-4 [6],90%
same,growth at 100 µM,SR [7],-53%
same,growth at 1000 µM,SW-620 [8],50%
same,GI50,[9]; read-out: GI50,5.79 µM
same,CC50,[9]; [24],> 100 µM
same,TGI,[9]; read-out: TGI,> 100 µM
same,GI50,[9]; read-out: pGI50 (converted),5.75 µM
same,CC50,[9]; [25],> 100 µM
same,TGI,[9]; read-out: pTGI (converted),> 100 µM
same,growth at 1000 µM,EKVX,36%
same,GI50,M14; read-out: GI50,15.2 µM
same,CC50,M14; [24],> 100 µM
same,TGI,M14; read-out: TGI,> 100 µM
same,GI50,M14; read-out: pGI50 (converted),15.1 µM
same,CC50,M14; [25],> 100 µM
same,TGI,M14; read-out: pTGI (converted),> 100 µM
same,growth at 0.1 µM,Malme-3M,103%
same,growth at 0.1 µM,RXF 393,103%
same,growth at 1000 µM,[10],-16%
same,growth at 100 µM,T47D [11],56%
same,growth at 1 µM,[12],98%
same,growth at 1 µM,SW-620 [13],102%
same,growth at 10 µM,DU-145,104%
same,GI50,SR [14]; read-out: GI50,1.27 µM
same,CC50,SR [14]; [24],9.43 µM
same,TGI,SR [14]; read-out: TGI,3.46 µM
same,GI50,SR [14]; read-out: pGI50 (converted),1.26 µM
same,CC50,SR [14]; [25],9.33 µM
same,TGI,SR [14]; read-out: pTGI (converted),3.47 µM
same,GI50,K562 [15]; read-out: GI50,3.12 µM
same,LC50 (concentration killing 50% of cells),K562 [15]; read-out: LC50,> 100 µM
same,TGI,K562 [15]; read-out: TGI,> 100 µM
same,GI50,K562 [15]; read-out: pGI50 (converted),3.09 µM
same,LC50 (concentration killing 50% of cells),K562 [15]; read-out: pLC50 (converted),> 100 µM
same,TGI,K562 [15]; read-out: pTGI (converted),> 100 µM
same,growth at 0.1 µM,SW-620 [16],99%
same,growth at 100 µM,K562 [17],17%
same,growth at 100 µM,SK-MEL-28 [18],44%
same,growth at 1000 µM,MOLT-4 [19],-5%
same,growth at 1000 µM,SK-MEL-28 [20],27%
same,growth at 100 µM,SW-620 [21],65%
same,GI50,MOLT-4 [22]; read-out: GI50,2.13 µM
same,LC50,MOLT-4 [22]; read-out: LC50,> 100 µM
same,TGI,MOLT-4 [22]; read-out: TGI,9.36 µM
same,GI50,MOLT-4 [22]; read-out: pGI50 (converted),2.24 µM
same,LC50,MOLT-4 [22]; read-out: pLC50 (converted),> 100 µM
same,TGI,MOLT-4 [22]; read-out: pTGI (converted),9.33 µM
same,growth at 0.1 µM,SK-MEL-28 [23],97%
